The text below walks through data of article PMC10398856 (ACS Omega, 2023).

The conditions of data set [1]: rat, in vivo.
Data set [2] concerns human coronavirus 229E (HCoV-229E). Nature of the data set: microbe, parasite or virus in culture. Format: cell-based. The note with it: for IC50: Human coronavirus 229E, A549, read-out: IC50, antiviral effect on HCoV-229E.
Data set [3] is described as follows: in vivo. The note with it: female, Wistar Albino, rat, po.
The subject of data set [4] is SARS-CoV-2. Nature of the data set: microbe, parasite or virus in culture. Format: cell-based. The note with it: for EC50: Severe acute respiratory syndrome coronavirus 2, 48 h, read-out: EC50, antiviral effect on SARS-CoV-2.
Data set [5] is described as follows: in vivo. Conditions: male, Wistar Albino, rat, po, 10 mg/kg.
For data set [6] the following is noted: 1 μM, 30 min, 37 °C.

Take `O=c1cc(OCCCOc2ccnc(SCc3ccc(F)cc3)n2)c2cc(F)ccc2o1` [5d, 6-Fluoro-4-(3-((2-((4-fluorobenzyl)thio)pyrimidin-4-yl)oxy)propoxy)-2H-chromen-2-one]: in data set [1] (female, Wistar Albino), the GHS classification category entry is listed as “Category-4”. Besides, the “clinical signs of toxicity and gross pathological changes” value in data set [1] (po, 300 mg/kg) is given as “no signs of toxicity”. The IC50 – broadly, the midpoint of a concentration-inhibition curve – in data set [2] is 15.4 µM. Further, in data set [3], the LD50 (as a rule, the dose at which mortality reaches 50%) was in the range of 500 to 1000 mg/kg. Also, the half-maximal effective concentration (EC50) – broadly, the concentration needed to bring the measured effect to its halfway point – in data set [4] came to 14.3 ± 0.14 µM. In addition, in data set [5], the highest level (Cmax) was 220 ng/mL and the half-life (usually the time in which the quantity being followed falls by half) is 73.3 h.

As to `O=c1cc(OCCOc2ccnc(SCc3ccc(F)cc3)n2)c2cc(F)ccc2o1` [5c, 6-Fluoro-4-(2-((2-((4-fluorobenzyl)thio)pyrimidin-4-yl)oxy)ethoxy)-2H-chromen-2-one], the concentration for half-maximal inhibition (IC50) in data set [2] is over 25 µM. Further, the concentration giving a half-maximal response (EC50) in data set [4] was over 50 µM.

Regarding `O=c1cc(OCCOc2ccnc(SCc3ccc(F)cc3)n2)c2ccccc2o1` [5a, 4-(2-((2-((4-Fluorobenzyl)thio)pyrimidin-4-yl)oxy)ethoxy)-2H-chromen-2-one], the IC50 in data set [2] was over 25 µM. In addition, the EC50 in data set [4] is over 50 µM.

On to `Cc1cccc(CSc2nccc(OCCCOc3cc(=O)oc4ccc(F)cc34)n2)c1` [5h, 6-Fluoro-4-(3-((2-((3-methylbenzyl)thio)pyrimidin-4-yl)oxy)propoxy)-2H-chromen-2-one], for which, in data set [2], the IC50 was over 25 µM. In addition, the half-maximal effective concentration (EC50) in data set [4] is over 50 µM.

As for `O=c1cc(OCCOc2ccnc(SCc3ccc(Cl)cc3)n2)c2ccccc2o1` [5i, 4-(2-((2-((4-Chlorobenzyl)thio)pyrimidin-4-yl)oxy)ethoxy)-2H-chromen-2-one], the IC50 in data set [2] was over 25 µM. Also, in data set [4], the “selectivity index, SARS-CoV-2” value is under 1 and the EC50 was over 50 µM.

Consider `Cc1cccc(CSc2nccc(OCCOc3cc(=O)oc4ccccc34)n2)c1` [5e, 4-(2-((2-((3-Methylbenzyl)thio)pyrimidin-4-yl)oxy)ethoxy)-2H-chromen-2-one], for which, in data set [2], the “selectivity index, HCoV-229E” value was found to be 3.06 and the IC50 amounted to 24.4 µM. In addition, under “1 μM, 30 min, 37 °C”, the “metabolic stability against human liver microsomes” value is given as “showed metabolic stability”. Besides, the “compound found to be stable in human liver microsomes” value (human) is over 50%. In addition, in data set [4], the “selectivity index, SARS-CoV-2” value is 11.4 and the concentration giving a half-maximal response (EC50) came out at 6.59 ± 0.28 µM. In addition, in data set [6], the “metabolic stability against rat liver microsomes” value is listed as “showed metabolic stability”.

On to `O=c1cc(OCCCOc2ccnc(SCc3ccc(F)cc3)n2)c2ccccc2o1` [5b, 4-(3-((2-((4-Fluorobenzyl)thio)pyrimidin-4-yl)oxy)propoxy)-2H-chromen-2-one], for which the IC50 in data set [2] is over 25 µM. In addition, the EC50 in data set [4] is over 50 µM.

On to `Cc1cccc(CSc2nccc(OCCOc3cc(=O)oc4ccc(F)cc34)n2)c1` [5g, 6-Fluoro-4-(2-((2-((3-methylbenzyl)thio)pyrimidin-4-yl)oxy)ethoxy)-2H-chromen-2-one], for which the half-maximal inhibitory concentration (IC50) in data set [2] is over 25 µM. Also, in data set [4], the concentration for a half-maximal effect (EC50) was over 50 µM.

With `Cc1cccc(CSc2nccc(OCCCOc3cc(=O)oc4ccccc34)n2)c1` [5f, 4-(3-((2-((3-Methylbenzyl)thio)pyrimidin-4-yl)oxy)propoxy)-2H-chromen-2-one], in data set [2], the concentration for half-maximal inhibition (IC50) was over 25 µM. For the same compound, in data set [4], the “selectivity index, SARS-CoV-2” value is listed as under 1 and the EC50 was over 50 µM.
